The results in this text go back to patent publication US11857560B2, “Pharmaceutical compositions comprising substituted nucleotides and nucleosides for treating viral infections” (priority 2013, dated 2024).

Some results are limits rather than exact numbers.

One data set has as its system Adenovirus. Nature of the data set: Adenovirus replication assay. To be noted: unidentified adenovirus. Type of data set: cell-based.
The subject of a further data set is HIV. Nature of the data set: HIV infected PBMC assay. Type of data set: cell-based, HIV-1. As to conditions: Human immunodeficiency virus 1, PBMC. The protocol: Fresh human peripheral blood mononuclear cells (PBMCs) were obtained from a commercial source (Biological Specialty) and were determined to be seronegative for HIV and HBV. Depending on the volume of donor blood received, the leukophoresed blood cells were washed several times with PBS. After washing, the leukophoresed blood was diluted 1:1 with Dulbecco's phosphate buffered saline (PBS) and layered over 15 mL of Ficoll-Hypaque density gradient in a 50 ml conical centrifuge tube. These tubes were centrifuged for 30 min at 600 g. Banded PBMCs were gently aspirated from the resulting interface and washed three times with PBS. […] After incubation, PBMCs were centrifuged and resuspended in tissue culture medium. The cultures were maintained until use by half-volume culture changes with fresh IL-2 containing tissue culture medium every 3 days. […]
Following addition of test compound to the wells, 50 uL of a predetermined dilution of HIV virus (prepared from 4× of final desired in-well concentration) was added, and mixed well. […] After 7 days in culture, HIV-1 replication was quantified in the tissue culture supernatant by measurement of reverse transcriptase (RT) activity. […]
Reverse Transcriptase Activity Assay—Reverse transcriptase activity was measured in cell-free supernatants using a standard radioactive incorporation polymerization assay. […]

The test system of a further data set is HBV. Nature of the data set: HBV replication assay. In kind it is cell-based. As to conditions: Hepatitis B virus. The method, then:
Ten microliters of cell culture supernatant collected on the sixth day was diluted in qPCR dilution buffer (40 μg/mL sheared salmon sperm DNA) and boiled for 15 minutes. Quantitative real time PCR was performed in […] using an Applied Biosystems 7900HT Sequence Detection System and the supporting SDS 2.4 software. Five microliters (5 μL) of boiled DNA for each sample and serial 10-fold dilutions of a quantitative DNA standard were subjected to real time Q-PCR using Platinum Quantitative PCR SuperMix-UDG (Invitrogen) and specific DNA oligonucleotide primers (IDT, Coralville, […]) HBV-AD38-qFI (5′-[…] -3′) (SEQ ID NO: 1), HBV-AD38-qR1 (5′-AGT CCA AGA GTY CTC TTA TRY AAG ACC TT-3′) (SEQ ID NO: 2), and HBV-AD38-qPI (5′-FAM CCG TGT GCA/ZEN/[…] -3′BHQ1) (SEQ ID NO: 3) at a final concentration of 0.2 μM for each primer in a total reaction volume of 15 μL. The HBV DNA copy number in each sample was interpolated from the standard curve by the SDS.24 software and the data were imported into an Excel spreadsheet for analysis.

A short description of data set [1]: Cytotoxicity in MRC-5 cells (VZV assay). Type of data set: cell-based. To be noted: human, beside VZV.
Another data set concerns HCMV. The data set is described as follows: HCMV replication assay. To be noted: Human betaherpesvirus 5. Type of data set: cell-based.
The test system of another data set is HSV-1. Nature of the data set: HSV-1 replication assay. In kind it is cell-based. To be noted: Human alphaherpesvirus 1.
The nature of data set [2]: Toxicity in Huh-7 cells (Dengue assay). As to conditions: human, Huh-7 cells.
A short description of data set [3]: Cytotoxicity in HepG2 cells (HBV assay). In kind it is cell-based. As to conditions: human, HepG2.2.15 cells; beside HBV. The protocol:
The 50% cytotoxic concentration for the test materials are derived by measuring the reduction of the tetrazolium dye XTT in the treated tissue culture plates. XTT is metabolized by the mitochondrial enzyme […] to a soluble formazan product in metabolically active cells. […] The 2-4 hour incubation has been empirically determined to be within linear response range for XTT dye reduction with the indicated numbers of cells for each assay. […] Data were collected by Softmax 4.6 software and imported into an Excel spreadsheet for analysis.

Data set [4] is described as follows: Cytotoxicity in MRC-5 cells (HCMV assay). In kind it is cell-based. As to conditions: human, beside HCMV.
In a further data set the test system is Huh-7. The data set is described as follows: Cytotoxicity panel, Huh-7. As to conditions: read-out: Cytotoxicity (CC50 uM) Huh-7; Huh-7.
A short description of data set [5]: Cytotoxicity in PBM cells (HIV assay). As to conditions: human, peripheral blood mononuclear cells (PBMCs), PHA-P stimulated; beside HIV. In kind it is cell-based.
A further data set concerns VZV. The data set is described as follows: VZV replication assay. Type of data set: cell-based. As to conditions: Human alphaherpesvirus 3.
A short description of data set [6]: Cytotoxicity in Huh-7 cells (HSV-1 assay). Type of data set: cell-based. As to conditions: human, beside HSV-1.

Regarding `CC(C)OC(=O)[C@H](C)NP(=O)(OC[C@H]1O[C@@H](n2ccc(=O)[nH]c2=S)[C@](C)(O)C1O)Oc1ccccc1` (stereo partly shown) [ENUC-01911], the half-maximal effective concentration (EC50) in the data set with Adenovirus, with HIV, in the data set with HBV, with HCMV, in the data set with HSV-1 and in the data set on VZV was > 100 µM throughout. Besides, the 50% cytotoxic concentration (CC50) in [1] is > 100 µM; in [2] it was > 100 µM; in data set [4], > 100 µM; in the data set on Huh-7, > 400 µM; in [6], > 100 µM. For the same molecule, the CC50 at 6 days in data set [3] is > 100 µM. Also, the cytotoxic concentration (CC50) at 7 days in [5] is > 100 µM.
